Results: the supplement of paper PMC10307832

Columns and labels:
Experiment in all cases: relative viability (nuclei count vs DMSO), 5 days (fraction); higher = more cells survive
Sunitinib + Foretinib = compound: CCN(CC)CCNC(=O)c1c(C)[nH]c(/C=C2\C(=O)Nc3ccc(F)cc32)c1C [Sunitinib] + COc1cc2c(Oc3ccc(NC(=O)C4(C(=O)Nc5ccc(F)cc5)CC4)cc3F)ccnc2cc1OCCCN1CCOCC1 [Foretinib] (partner 0.25 µM)
In short: (§1)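 One day after seeding in 1536-well plates, lung cancer cell lines were dosed by pin tool. Dosing was either single-drug or a fixed anchor-drug dose plus five library-drug doses (not always all listed) in √10 steps. After 5 days, nuclei were stained in one fix-and-stain step and counted on 4× images, and relative viability is the nuclei count of treated wells over that of vehicle wells, given as the median of duplicate plates.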

Sunitinib + AZD7762 = compound: CCN(CC)CCNC(=O)c1c(C)[nH]c(/C=C2\C(=O)Nc3ccc(F)cc32)c1C [Sunitinib] + NC(=O)Nc1cc(-c2cccc(F)c2)sc1C(=O)N[C@H]1CCCNC1 [AZD7762] (partner 0.2 µM)
In short: as §1

Sunitinib + Vorinostat = compound: CCN(CC)CCNC(=O)c1c(C)[nH]c(/C=C2\C(=O)Nc3ccc(F)cc32)c1C [Sunitinib] + O=C(CCCCCCC(=O)Nc1ccccc1)NO [Vorinostat] (partner 1 µM)
In short: as §1

Sunitinib + Pictilisib = compound: CCN(CC)CCNC(=O)c1c(C)[nH]c(/C=C2\C(=O)Nc3ccc(F)cc32)c1C [Sunitinib] + CS(=O)(=O)N1CCN(Cc2cc3nc(-c4cccc5[nH]ncc45)nc(N4CCOCC4)c3s2)CC1 [Pictilisib] (partner 1 µM)
In short: as §1

| Cell Line | relative viability (Sunitinib + Foretinib; first compound 0.02 µM) | relative viability (Sunitinib + Foretinib; first compound 0.06325 µM) | relative viability (Sunitinib + Foretinib; first compound 0.2 µM) | relative viability (Sunitinib + Foretinib; first compound 0.6325 µM) | relative viability (Sunitinib + Foretinib; first compound 2 µM) | relative viability (Sunitinib + AZD7762; first compound 0.06325 µM) | relative viability (Sunitinib + AZD7762; first compound 0.2 µM) | relative viability (Sunitinib + AZD7762; first compound 0.6325 µM) | relative viability (Sunitinib + AZD7762; first compound 2 µM) | relative viability (Sunitinib + Vorinostat; first compound 0.06325 µM) | relative viability (Sunitinib + Vorinostat; first compound 0.2 µM) | relative viability (Sunitinib + Vorinostat; first compound 0.6325 µM) | relative viability (Sunitinib + Vorinostat; first compound 2 µM) | relative viability (Sunitinib + Pictilisib; first compound 0.06325 µM) | relative viability (Sunitinib + Pictilisib; first compound 0.2 µM) | relative viability (Sunitinib + Pictilisib; first compound 0.6325 µM) | relative viability (Sunitinib + Pictilisib; first compound 2 µM) | relative viability (Sunitinib + AZD7762; first compound 0.02 µM) | relative viability (Sunitinib + Vorinostat; first compound 0.02 µM) | relative viability (Sunitinib + Pictilisib; first compound 0.02 µM) |
| --- | --- | --- | --- | --- | --- | --- | --- | --- | --- | --- | --- | --- | --- | --- | --- | --- | --- | --- | --- | --- |
| NCI-H1793 | 0.649 | 0.675 | 0.753 | 0.723 | 0.593 | 0.448 | 0.44 | 0.377 | 0.334 | 0.867 | 0.989 | 0.91 | 0.825 | 0.296 | 0.361 | 0.241 | 0.297 |  |  |  |
| ABC-1 | 1.01 | 1.07 | 1.3 | 1.26 | 1 | 0.863 | 0.921 | 0.865 | 0.927 | 1.38 | 1.05 | 1.09 |  |  | 0.668 | 0.991 | 0.802 | 0.77 | 1.22 | 0.818 |
| NCI-H596 | 0.688 | 0.949 | 0.779 | 0.849 | 0.649 | 1.12 | 1.18 |  | 0.858 | 0.541 | 0.594 | 0.637 | 0.564 | 0.392 | 0.428 | 0.394 | 0.434 |  | 0.734 | 0.376 |
| NCI-H2087 | 1.12 | 1.28 | 1.15 | 1.07 | 1.11 | 1.42 | 1.34 | 1.41 | 1.46 | 0.664 | 0.667 | 0.715 | 0.712 | 0.831 | 1.04 | 0.879 | 0.799 | 1.21 | 0.748 | 0.957 |
| LCLC-97TM1 | 0.926 |  | 1.13 | 0.991 | 0.926 | 0.163 | 0.234 | 0.224 | 0.288 | 0.943 | 0.713 | 0.887 | 0.768 | 0.261 |  | 0.213 | 0.233 | 0.265 | 0.638 | 0.199 |
| NCI-H1734 | 0.815 | 0.896 | 0.966 |  | 0.752 | 0.592 | 0.635 | 0.543 | 0.518 | 0.91 | 1.05 | 0.782 | 0.782 | 0.518 | 0.522 | 0.452 | 0.423 | 0.436 | 0.694 | 0.433 |
| H3255 | 0.782 | 0.573 | 0.819 | 0.861 | 1.01 | 0.888 |  | 0.871 | 0.871 | 0.573 | 0.835 | 0.827 | 0.822 | 0.495 | 0.519 | 0.514 | 0.495 | 0.968 | 0.672 | 0.465 |
| NCI-H2126 | 1.13 | 1.31 | 1.34 | 1.47 | 1.31 | 1.07 | 1.21 | 1.03 | 1.02 | 0.906 | 0.857 | 0.808 | 0.84 | 0.55 | 0.517 | 0.563 | 0.502 | 0.937 | 0.73 | 0.465 |
| CAL-12T | 1.07 | 1.27 | 1.32 | 1.03 | 1.28 | 0.663 | 0.65 | 0.731 | 0.76 | 0.864 | 1.04 | 0.902 | 0.682 | 0.58 | 0.431 | 0.628 | 0.414 | 0.648 | 0.541 | 0.47 |
| BEN | 0.598 | 0.704 | 0.576 | 0.665 | 0.644 | 0.755 | 0.815 | 0.661 | 0.66 | 0.637 | 0.571 | 0.574 | 0.533 | 0.552 | 0.615 | 0.566 | 0.52 | 0.774 | 0.535 | 0.494 |
| HCC-366 | 0.864 | 0.908 | 0.919 | 0.827 | 0.871 | 0.207 | 0.379 | 0.238 | 0.216 | 0.388 | 0.487 | 0.442 | 0.468 | 0.181 | 0.128 | 0.175 | 0.137 | 0.241 | 0.326 | 0.0687 |
| NCI-H358 | 0.716 | 0.774 | 0.8 | 0.748 | 0.527 | 0.596 | 0.637 | 0.427 | 0.449 | 0.684 | 0.79 | 0.77 | 0.419 | 0.38 | 0.34 | 0.359 | 0.261 | 0.59 | 0.588 | 0.369 |
| A-427 | 1.03 | 1.12 | 1.08 | 1.1 | 1.11 | 0.761 | 0.777 | 0.711 | 0.679 | 0.915 | 0.912 | 0.887 | 0.898 | 0.8 | 0.926 | 0.748 | 0.73 | 0.773 | 0.871 | 0.702 |
| NCI-H2085 | 0.851 |  | 1.02 | 0.957 | 0.935 | 0.976 | 1.12 | 1.07 | 1 | 0.827 | 0.84 | 0.813 | 0.807 | 0.476 | 0.519 | 0.519 | 0.555 | 0.965 | 0.784 | 0.431 |
| EKVX | 0.739 | 0.752 | 0.918 | 1.3 | 0.892 | 0.783 | 0.735 | 0.688 | 0.716 |  | 0.882 | 0.806 | 0.728 | 0.437 | 0.578 | 0.495 | 0.577 | 0.755 | 0.802 | 0.456 |
| NCI-H1651 | 0.762 | 0.843 | 0.877 | 0.826 | 0.806 | 0.478 | 0.451 | 0.441 | 0.449 | 0.736 | 0.591 | 0.5 | 0.514 | 0.729 | 0.616 | 0.614 | 0.593 | 0.462 | 0.514 | 0.462 |
| LU99A | 0.731 | 0.894 | 0.931 | 1.01 | 0.91 | 0.311 | 0.343 | 0.325 | 0.368 | 0.625 | 0.514 | 0.516 | 0.44 | 0.352 | 0.282 | 0.317 | 0.313 | 0.334 | 0.468 | 0.308 |
